In patent EP4570800A1, “CRYSTAL FORM OF PYRIDINOPYRIMIDINONE COMPOUND, ACID SALT THEREOF, CRYSTAL FORM OF ACID SALT THEREOF, AND USE” (Wuhan Humanwell Innovative Drug Research and Development …, priority 2022, dated 2024):
Where two headings read alike, the source gives them in different places.

Tests used:
[1] = Plasma protein binding rate by equilibrium dialysis; assay type: in vitro ADME; conditions: compound 1 µM, equilibrium dialysis 37°C
Procedure: Plasma protein binding rate of compounds was detected by equilibrium dialysis (HTDialysis, HTD 96b). The compound was prepared into a […] stock solution with DMSO, and then 25-fold diluted with 0.05 M sodium phosphate buffer as a working solution. A blank 96-well plate was taken and preloaded with 380 µL of plasma per well. The plasma was then added with the working solution at 20 µL/well and mixed well, with the compound at a final concentration of 1 µM, containing 0.2% DMSO per well.
100 µL of 0.05 M sodium phosphate buffer was added to the receiver-side of each dialysis chamber (HTD 96b), and then 100 µL of plasma containing the compound was added to the supply-side. The dialysis chamber was covered with a plastic lid, shaken, and incubated at 37°C for 5 h.
After incubation, 25 µL of sample was taken from each of the supply-side and the receiver-side of the dialysis chamber, and placed in the blank 96-well plate. An equal volume of plasma was added to each of the supply-side samples while an equal volume of 0.05 M sodium phosphate buffer was added to each of the receiver-side samples, and mixed well. […]
Plasma protein binding rate and free fraction were calculated using the following formulas: % binding rate = 100 × ([supply-side concentration]5h - [receiver-side concentration]5h)/[supply-side concentration]5h. % free fraction = 100 - % binding rate

[2] = test system: ERK phosphorylation level in DLD-1 cells; experiment: Inhibition of ERK phosphorylation level in DLD-1 cells (intracellular western blot); assay type: cell-based; conditions: Homo sapiens
Procedure: Intracellular western blot quantitative analysis was used to detect the inhibitory level of compounds on ERK phosphorylation in DLD-1 cells.
DLD-1 cells (ATCC, CCL-221) were seeded in a T75 culture flask at 2.5 × 10^6 cells/flask, and cultured in a RPMI 1640 medium containing 10% FBS for 2 days. On day 3, the cells were seeded on a 384-well plate, and cultured overnight at 37°C, 5% CO2. After overnight culture, the plate was added with serially diluted compounds (the final content of DMSO was 0.5%), the negative group was added with DMSO, and incubated in a 37°C, 5% CO2 incubator.
The cells were fixed, washed once with PBS, treated to disrupt membranes, and blocked at room temperature for 1 h. The blocking solution was removed. The plate was added with primary antibody (CST, Cat. No. #4370S), and incubated overnight at 4°C. The plate was washed 3 times with PBST (PBS solution added with 0.05% Tween-20), and soaked for 2 min each time. The plate was added with secondary antibody (LI-COR, Cat. No. 926-32211), and incubated at room temperature in the dark. The plate was washed 3 times with PBST, and soaked for 2 min each time. The plate was centrifuged at 1000 rpm for 1 min, scanned on a two-color infrared laser imaging system (Odyssey® CLX) to read the signal. Relative signal = 800-channel signal values/700-channel signal values. […]
(§1) IC50 values were calculated using Graphpad 5 software.

LOVO colorectal cancer = experiment: In vivo efficacy test on LOVO colorectal cancer; design: species or system mice; conditions: 50 mg/kg, BID
Procedure: After one week of adaptive feeding of mice, LOVO cells in a logarithmic phase were resuspended in serum-free F12K, 5 × 10^6 LOVO cells were inoculated subcutaneously at the right flank at 100 µL per mouse, and tumor growth was observed regularly. When the tumor grew to an average volume of 150 to 200 mm^3, the mice were randomly divided into a model group and an administration group based on the tumor size and body weight. The tumor size and body weight were measured and recorded before and during the administration. After the treatment, the tumor size in the model group was compared with that in the administration group to determine the efficacy.

[3] = test system: Mia Paca-2 pancreatic cancer; experiment: In vivo efficacy test on Mia Paca-2 pancreatic cancer; design: species or system mice; conditions: for Average tumor weight at the end of the treatment / Tumor weight inhibition rate (relative to the vehicle group): BID
Procedure: After one week of adaptive feeding of mice, Mia Paca-2 cells in a logarithmic phase were resuspended in serum-free DMEM, and then mixed with Matrigel in a ratio of 1: 1. 1 × 10^7 Mia Paca-2 cells were inoculated subcutaneously at the right flank at 100 µL per mouse, and tumor growth was observed regularly. When the tumor grew to an average volume of 150 to 200 mm^3, the mice were randomly divided into a model group and an administration group (single drug, in combination with trametinib) based on the tumor size and body weight. The tumor size and body weight were measured and recorded before and during the administration. After the treatment, the tumor size in the model group was compared with that in the administration group to determine the efficacy.

H358 cells = experiment: Inhibition of 3D cell proliferation (3D CellTiter-Glo); assay type: cell-based
Procedure: H358 cells were seeded in a T75 culture flask, and cultured in a RPMI 1640 medium containing 10% FBS for 2 days for subsequent experiments in which the cells would be cultured or seeded on a 384-well plate.
On day 1, the cells were seeded on the 384-well plate, with 40 µL of medium added per well and serially diluted compounds or DMSO added per well, and an additional well without seeded cells but with medium was set up as a blank control. After culture at 37°C, 5% CO2 for 7 days, the plate was added with 3D CellTiter-Glo reagent (Promega, Cat. No. G9683) on day 8, shaken at 320 rpm for 20 min, and left at room temperature for 2 h. Luminescence signals were read on a multifunctional microplate reader. Cell viability inhibition rate was calculated as: [formula]
as §1

CYP3A4 = target: T1, CYP3A4 (Homo sapiens, UniProt P08684); experiment: Cytochrome P450 inhibition test (CYP3A4, substrates midazolam and testosterone); assay type: in vitro ADME; conditions: compound 10 µM, human liver microsomes
T1 construct: A human liver microsome solution at a concentration of 0.2 mg/mL was prepared; from tissue; host or cells: human liver microsomes
T1 sequence (P08684 whole entry): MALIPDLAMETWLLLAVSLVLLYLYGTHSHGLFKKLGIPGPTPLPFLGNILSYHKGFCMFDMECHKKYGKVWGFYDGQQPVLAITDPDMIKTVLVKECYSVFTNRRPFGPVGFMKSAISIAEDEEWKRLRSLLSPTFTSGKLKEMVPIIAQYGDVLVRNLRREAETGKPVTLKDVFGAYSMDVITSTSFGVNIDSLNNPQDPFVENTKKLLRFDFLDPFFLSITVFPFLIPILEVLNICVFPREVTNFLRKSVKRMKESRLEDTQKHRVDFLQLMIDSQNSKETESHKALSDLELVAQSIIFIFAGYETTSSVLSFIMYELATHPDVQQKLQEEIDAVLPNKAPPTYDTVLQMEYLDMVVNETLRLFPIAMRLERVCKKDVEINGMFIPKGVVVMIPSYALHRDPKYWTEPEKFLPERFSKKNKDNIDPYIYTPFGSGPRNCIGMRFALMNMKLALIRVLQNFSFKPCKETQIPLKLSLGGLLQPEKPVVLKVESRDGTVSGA
Procedure: The inhibitory potential of compounds on cytochrome P450 (CYP450) subtype CYP3A4 (two substrates of midazolam and testosterone) was detected. First, the compound to be tested was prepared into a 10 mM stock solution in DMSO solvent, and the CYP3A4 inhibitor ketoconazole was prepared as 10 mM, 2.5 mM, and 2.5 mM stock solutions in DMSO solvent. The test compound and ketoconazole were diluted to 400-fold final concentration (compound: 10 µM, ketoconazole: 2.5 µM) with acetonitrile.
NADPH cofactor (10 mL of potassium phosphate buffer added with 66.7 mg NADPH) at 4-fold final concentration and substrates were prepared with potassium phosphate buffer (0.1 M, pH = 7.4), with CYP3A4 substrate midazolam at a final concentration of 320 µM and CYP3A4 substrate testosterone at a final concentration of 20 µM.
A human liver microsome solution at a concentration of 0.2 mg/mL was prepared with potassium phosphate buffer on ice. A solution of the compound to be tested and a control inhibitor (control compound) solution at 2-fold final concentration were prepared with the human liver microsome solution on ice. The test wells were added with 30 mL of the test compound solution and the control inhibitor solution respectively, and then added with 15 mL of the substrate for duplication. […]

Cc1nc(N[C@H](C)c2cccc(S(F)(F)(F)(F)F)c2)c2cn(C3(CF)CC3)c(=O)cc2n1 [Compound of formula I, (R)-6-(1-(fluoromethyl)cyclopropyl)-2-methyl-4-((1-(3-(pentafluorosulfanyl)phenyl)ethyl)amino)pyrido[4,3-d]pyrimidin-7(6H)-one]
fraction unbound at 5 h, 1 µM ([1]; human plasma, read-out: free fraction in plasma, Human (%)): 0.017 | fraction unbound at 5 h, 1 µM ([1]; mouse plasma, read-out: free fraction in plasma, Mouse (%)): 0.011 | IC50 [2]: 56 nM | At the end of treatment Average tumor weight (LOVO colorectal cancer): 0.75 g | Tumor weight inhibition rate (relative to the vehicle group) (LOVO colorectal cancer): 46% | Average tumor weight at the end of the treatment ([3]; Mia Paca-2, 25 mg/kg): 0.35 g | Tumor weight inhibition rate (relative to the vehicle group) ([3]; Mia Paca-2, 25 mg/kg): 70% | Average tumor weight at the end of the treatment ([3]; Mia Paca-2, 50 mg/kg): 0.27 g | Tumor weight inhibition rate (relative to the vehicle group) ([3]; Mia Paca-2, 50 mg/kg): 76% | inhibitory effect on Mia Paca-2 tumor growth ([3]; alone (single drug)): significant inhibitory effect | efficacy of combined use compared with single use ([3]; combination with trametinib vs single use, Mia Paca-2): more effective than the single use | inhibitory effect on Mia Paca-2 tumor growth ([3]; in combination with trametinib): significant inhibitory effect | IC50 (H358 cells; Homo sapiens, NCI-H358, 168 h, 3D cell proliferation in H358 cells, 7 days culture, 3D CellTiter-Glo): 11.5 nM | inhibitory effect on the 3D proliferation of H358 cells (H358 cells; summary statement): strong inhibitory effect | inhibition at 5 min, 10 µM (CYP3A4; pH 7.4, probe midazolam, substrate midazolam, read-out: CYP inhibition rate (%) CYP3A4 (midazolam)): 0% | inhibition at 5 min, 10 µM (CYP3A4; pH 7.4, probe testosterone, substrate testosterone, read-out: CYP inhibition rate (%) CYP3A4 (testosterone)): 0%
